Values joined by “and” are separate entries in the source; they are usually repeats but may differ in a detail not shown here. Equal values may be shown once.
Tests used:
[1] = instrument: DT, stepped-field
[2] = [M+H]+; instrument: TW; Major Mix IMS/Tof Calibration Kit (Waters)

Structure (SMILES)	collision cross section (N2) [2] [Å²]	other results
OCC1OC(OC2(CO)OC(CO)C(O)C2O)C(O)C(O)C1O (stereo not given) [(Hex)2]		collision cross section (N2) ([1]; [M+Na-H2O]+): 172.1 Å²
OCC1OC(OC2C(CO)OC(OC3C(CO)OC(O)C(O)C3O)C(O)C2O)C(O)C(O)C1O (stereo not given) [(Hex)3]		collision cross section (N2) ([1]; [M+Na-H2O]+): 204.9 Å²
OCC1OC(OC2C(CO)OC(OC3C(CO)OC(OC4C(CO)OC(OC5C(CO)OC(O)C(O)C5O)C(O)C4O)C(O)C3O)C(O)C2O)C(O)C(O)C1O (stereo not given) [(Hex)5]		collision cross section (N2) ([1]; [M+H-H2O]+): 282.3 Å²; collision cross section (N2) ([1]; [M+Na-H2O]+): 263.1 Å²; collision cross section (N2) ([1]; [M+Na]+): 259.5 Å²
OCC1OC(OC2C(CO)OC(OC3C(CO)OC(OC4C(CO)OC(OC5C(CO)OC(OC6C(CO)OC(OC7C(CO)OC(OC8C(CO)OC(OC9C(CO)OC(OC%10C(CO)OC(OC%11C(CO)OC(O)C(O)C%11O)C(O)C%10O)C(O)C9O)C(O)C8O)C(O)C7O)C(O)C6O)C(O)C5O)C(O)C4O)C(O)C3O)C(O)C2O)C(O)C(O)C1O (stereo not given) [(Hex)11]		collision cross section (N2) ([1]; [M+H-H2O]+): 379.1 Å²; collision cross section (N2) ([1]; [M+K]+): 364.8 Å² and 367.1 Å²; collision cross section (N2) ([1]; [M+Li]+): 369.7 Å²; collision cross section (N2) ([1]; [M+Na]+): 384.6 Å²; collision cross section (N2) ([1]; [M+Rb]+): 363.1 Å² and 369.7 Å²
C[C@H](N)C(=O)N[C@@H](C)C(=O)NCC(=O)N[C@@H](Cc1c[nH]cn1)C(=O)N[C@@H](CC(=O)O)C(=O)NCC(=O)N[C@@H](CCCCN)C(=O)O [AAGHDGK]		collision cross section (N2) ([1]; [M+H]+): 249 Å²
CC(C)C[C@H](NC(=O)[C@H](CC(=O)O)NC(=O)[C@H](C)N)C(=O)N[C@@H](C)C(=O)N[C@@H](CCCCN)C(=O)O [ADLAK]		collision cross section (N2) ([1]; [M+H]+): 228.3 Å²
CCC(C)[C@H](NC(=O)[C@H](CC(C)C)NC(=O)[C@H](CC(C)C)NC(=O)[C@H](CCC(=O)O)NC(=O)[C@H](CC(N)=O)NC(=O)[C@H](C)N)C(=O)N[C@@H](CC(N)=O)C(=O)N[C@H](C(=O)N[C@@H](CCCCN)C(=O)O)C(C)C (stereo not given in full) [ANELLINVK]		collision cross section (N2) ([1]; [M+H]+): 326.8 Å²
OC[C@H]1O[C@@H]2O[C@H]3[C@H](O)[C@@H](O)[C@@H](O[C@H]4[C@H](O)[C@@H](O)[C@@H](O[C@H]5[C@H](O)[C@@H](O)[C@@H](O[C@H]6[C@H](O)[C@@H](O)[C@@H](O[C@H]7[C@H](O)[C@@H](O)[C@@H](O[C@H]1[C@H](O)[C@H]2O)O[C@@H]7CO)O[C@@H]6CO)O[C@@H]5CO)O[C@@H]4CO)O[C@@H]3CO [Alpha-Cyclodextrin]		collision cross section (N2) ([1]; [M+H]+): 285.2 Å²; collision cross section (N2) ([1]; [M+K]+): 287.7 Å²; collision cross section (N2) ([1]; [M+Na]+): 285.5 Å²
NCCCC[C@H](NC(=O)[C@H](CC(=O)O)NC(=O)CNC(=O)[C@@H](N)CC(=O)O)C(=O)O [DGDK]		collision cross section (N2) ([1]; [M+H]+): 195.8 Å²
CC(C)[C@H](NC(=O)[C@@H](N)CC(=O)O)C(=O)N[C@@H](CS)C(=O)N[C@@H](CCCCN)C(=O)O [DVCK]		collision cross section (N2) ([1]; [M+H]+): 204.7 Å²
CC(C)C[C@H](NC(=O)[C@H](Cc1ccc(O)cc1)NC(=O)[C@H](C)NC(=O)[C@H](C)NC(=O)[C@@H](N)Cc1ccccc1)C(=O)N[C@@H](CCC(=O)O)C(=O)N[C@@H](CCCNC(=N)N)C(=O)O [FAAYLER]		collision cross section (N2) ([1]; [M+H]+): 295.5 Å²
NCCCC[C@H](NC(=O)[C@H](CC(N)=O)NC(=O)[C@H](CCC(N)=O)NC(=O)[C@@H](N)Cc1ccccc1)C(=O)O [FQNK]		collision cross section (N2) ([1]; [M+Na]+): 243.9 Å²
N=C(N)NCCC[C@H](NC(=O)[C@H](CC(=O)O)NC(=O)[C@H](CO)NC(=O)[C@H](CO)NC(=O)[C@@H](N)Cc1ccccc1)C(=O)O [FSSDR]		collision cross section (N2) ([1]; [M+H]+): 237.3 Å²
CCC(c1ccccc1)c1c(O)c2ccccc2oc1=O (stereo not given) [Phenprocoumon]	160	
O=c1[nH]c2ccccc2n1C1CCN(CCCC(c2ccc(F)cc2)c2ccc(F)cc2)CC1 [Pimozide]	214.4	
CCN(CC)CCOC(=O)c1ccc(N)cc1 [Procaine]	154.6	
OC(CCN1CCCC1)(c1ccccc1)C1CCCCC1 (stereo not given) [Procyclidine]	172.6	
CC(C)NC(=N)NC(=N)Nc1ccc(Cl)cc1 [Proguanil]	161.3	
CN(C)CCCN1c2ccccc2Sc2ccccc21 [Promazine]	161.5	
CCCNCC(O)COc1ccccc1C(=O)CCc1ccccc1 (stereo not given) [Propafenone]	178.5	
CNCCCC1c2ccccc2C=Cc2ccccc21 [Protriptyline]	162.8	

Structure (SMILES)	collision cross section (N2) [2] [Å²]	other results
CN(C)CCc1c[nH]c2cccc(O)c12 [Psilocin]	144.8	
C=C[C@H]1C[N@@]2CC[C@H]1C[C@@H]2[C@@H](O)c1ccnc2ccc(OC)cc12 [Quinidine]	175.8	
C=C[C@H]1C[N@@]2CC[C@H]1C[C@H]2[C@H](O)c1ccnc2ccc(OC)cc12 [Quinine]	177.4	
CC(C)(C)NCC(O)c1ccc(O)c(CO)c1 (stereo not given) [Salbutamol]	160	
CN1[C@@H]2C[C@@H](OC(=O)[C@H](CO)c3ccccc3)C[C@H]1[C@@H]1O[C@@H]12 [Scopolamine]	171.1	
C#CCN(C)[C@H](C)Cc1ccccc1 [Selegiline]	142.1	
O=c1[nH]ccn1CCN1CCC(c2cn(-c3ccc(F)cc3)c3ccc(Cl)cc23)CC1 [Sertindol-M dehydro]	213.8	
O=C(O)c1cc(/N=N/c2ccc(S(=O)(=O)Nc3ccccn3)cc2)ccc1O [Sulfasalazine]	199.7	
CCN1CCCC1CNC(=O)c1cc(S(N)(=O)=O)ccc1OC (stereo not given) [Sulpiride]	184.3	
CC(C)(C)c1ccc(C(O)CCCN2CCC(C(O)(c3ccccc3)c3ccccc3)CC2)cc1 (stereo not given) [Terfenadine]	229.8	
CCCCNc1ccc(C(=O)OCCN(C)C)cc1 [Tetracaine]	173.1	
CN1c2ccccc2C(NCCCCCCC(=O)O)c2ccc(Cl)cc2S1(=O)=O (stereo not given) [Tianeptine]	197	
CN1CCN(CCCN2c3ccccc3Sc3ccc(C(F)(F)F)cc32)CC1 [Trifluoperazine]	188.1	
CC(CN(C)C)CN1c2ccccc2CCc2ccccc21 (stereo not given) [Trimipramine]	171.2	
COc1ccc(CCNCCCC(C#N)(c2ccc(OC)c(OC)c2)C(C)C)cc1OC (stereo not given) [Verapamil-M nor]	207.3	
Cc1cccc(C)c1NC1=NCCCS1 [Xylazine]	147.9	
Cc1cc(C(C)(C)C)cc(C)c1CC1=NCCN1 [Xylometazoline]	170.4	
COC(=O)[C@@H]1[C@H]2C[C@H]3c4[nH]c5ccccc5c4CCN3C[C@@H]2CC[C@@H]1O [Yohimbine]	186.5	
Cc1ccc2nc(-c3ccc(C(=O)O)cc3)c(CC(=O)N(C)C)n2c1 [Zolpidem-M Carboxylic acid]	184.4	
CN1CCN(C(=O)OC2c3nccnc3C(=O)N2c2ccc(Cl)cn2)CC1 (stereo not given) [Zopiclone]	188.5	
FC(F)(F)c1cccc(N2CCNCC2)c1 [m-Trifluorophenylpiperazine (TFMPP)]	151.1	

From the C3SDB collision cross section collection
